Data on 47 compounds can be found in ChEMBL document CHEMBL1909514, “Imidazo[2,1-b]thiazole guanylhydrazones as RSK2 inhibitors” (Eur J Med Chem, 2011).

In test [1] the target is Serine/threonine-protein kinase Chk2 (Homo sapiens, UniProt O96017).
Description: Inhibition of CHK2 assessed as inhibition of substrate phosphorylation using fluorescent peptide substrate by microplate reader assay
For test [2], the target named is T1, Serine/threonine-protein kinase Chk1 (Homo sapiens, UniProt O14757).
T1 sequence (O14757 whole entry): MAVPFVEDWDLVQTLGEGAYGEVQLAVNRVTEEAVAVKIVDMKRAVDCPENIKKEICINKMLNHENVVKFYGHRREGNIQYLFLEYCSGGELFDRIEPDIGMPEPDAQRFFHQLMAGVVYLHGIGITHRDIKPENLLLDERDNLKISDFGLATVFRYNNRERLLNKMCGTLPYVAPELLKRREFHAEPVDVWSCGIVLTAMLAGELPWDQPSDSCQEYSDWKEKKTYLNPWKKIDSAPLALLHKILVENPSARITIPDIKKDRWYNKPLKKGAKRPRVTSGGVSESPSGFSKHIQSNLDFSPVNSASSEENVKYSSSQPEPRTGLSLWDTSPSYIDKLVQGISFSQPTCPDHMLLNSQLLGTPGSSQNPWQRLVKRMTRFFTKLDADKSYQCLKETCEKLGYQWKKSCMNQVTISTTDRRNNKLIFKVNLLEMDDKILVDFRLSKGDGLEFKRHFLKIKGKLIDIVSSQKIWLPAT
Description: Inhibition of CHK1 assessed as inhibition of substrate phosphorylation using fluorescent peptide substrate by microplate reader assay

Test [3] deals with Ribosomal protein S6 kinase alpha-3 (Homo sapiens, UniProt P51812).
Description: Inhibition of RSK2 assessed as inhibition of substrate phosphorylation using fluorescent peptide substrate by microplate reader assay
Test [4] has as its target T2, Aurora kinase A (Homo sapiens) (UniProt O14965).
T2 sequence (whole entry): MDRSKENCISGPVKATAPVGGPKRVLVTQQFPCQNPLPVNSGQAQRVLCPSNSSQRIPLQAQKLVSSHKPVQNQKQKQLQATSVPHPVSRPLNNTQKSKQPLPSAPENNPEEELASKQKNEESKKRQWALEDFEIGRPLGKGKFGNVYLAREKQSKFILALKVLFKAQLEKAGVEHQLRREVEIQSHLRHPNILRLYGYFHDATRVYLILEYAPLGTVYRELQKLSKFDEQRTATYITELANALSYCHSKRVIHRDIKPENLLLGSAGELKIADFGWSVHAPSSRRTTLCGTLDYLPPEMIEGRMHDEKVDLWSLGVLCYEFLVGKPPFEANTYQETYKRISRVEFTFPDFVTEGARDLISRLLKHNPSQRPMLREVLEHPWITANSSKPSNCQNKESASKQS
Briefly: Inhibition of Aurora kinase A assessed as inhibition of substrate phosphorylation using fluorescent peptide substrate up to 100 uM by microplate reader assay.

Activity calls are given as the source filed them. The rule behind the calls is not given here. Where only a bound is given, the exact number is not on record here.

Serine/threonine-protein kinase Chk2, sequence (O96017 whole entry): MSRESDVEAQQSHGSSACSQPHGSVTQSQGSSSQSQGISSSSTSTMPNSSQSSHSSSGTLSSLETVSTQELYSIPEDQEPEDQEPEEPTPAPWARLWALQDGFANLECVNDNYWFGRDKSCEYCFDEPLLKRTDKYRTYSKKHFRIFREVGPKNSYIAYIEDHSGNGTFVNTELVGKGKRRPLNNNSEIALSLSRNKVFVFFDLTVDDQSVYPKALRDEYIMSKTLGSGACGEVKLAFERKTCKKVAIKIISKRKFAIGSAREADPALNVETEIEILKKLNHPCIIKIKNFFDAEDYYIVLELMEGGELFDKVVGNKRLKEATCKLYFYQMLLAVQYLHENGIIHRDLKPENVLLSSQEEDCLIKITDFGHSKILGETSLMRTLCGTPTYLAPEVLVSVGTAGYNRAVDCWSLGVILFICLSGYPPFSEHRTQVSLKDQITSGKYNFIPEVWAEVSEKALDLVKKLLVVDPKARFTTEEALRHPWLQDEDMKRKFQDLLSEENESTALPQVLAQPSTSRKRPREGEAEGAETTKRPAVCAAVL
Ribosomal protein S6 kinase alpha-3, sequence (P51812 whole entry): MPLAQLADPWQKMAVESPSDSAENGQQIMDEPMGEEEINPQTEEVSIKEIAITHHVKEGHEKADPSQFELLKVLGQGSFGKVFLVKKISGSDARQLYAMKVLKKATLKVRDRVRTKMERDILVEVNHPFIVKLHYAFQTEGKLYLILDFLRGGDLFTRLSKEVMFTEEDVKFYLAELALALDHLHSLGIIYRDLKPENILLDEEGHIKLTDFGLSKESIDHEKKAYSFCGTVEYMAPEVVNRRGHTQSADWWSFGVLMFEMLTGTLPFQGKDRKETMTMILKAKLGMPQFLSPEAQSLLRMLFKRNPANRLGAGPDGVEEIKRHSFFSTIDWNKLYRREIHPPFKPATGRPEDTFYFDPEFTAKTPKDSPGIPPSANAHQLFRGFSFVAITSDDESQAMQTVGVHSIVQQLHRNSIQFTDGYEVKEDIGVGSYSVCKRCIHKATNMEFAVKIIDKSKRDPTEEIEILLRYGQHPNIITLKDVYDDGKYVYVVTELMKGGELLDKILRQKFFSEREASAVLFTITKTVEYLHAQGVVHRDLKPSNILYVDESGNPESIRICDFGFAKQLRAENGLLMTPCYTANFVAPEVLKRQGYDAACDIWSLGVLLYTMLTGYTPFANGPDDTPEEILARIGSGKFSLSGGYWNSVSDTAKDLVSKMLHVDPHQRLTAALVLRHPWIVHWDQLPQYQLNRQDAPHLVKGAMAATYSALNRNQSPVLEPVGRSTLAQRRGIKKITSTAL

In the case of `N=C(N)N/N=C/c1c(-c2ccc(Cl)c([N+](=O)[O-])c2)nc2ccccn12`, the IC50 in test [1] is 79 µM; in test [2], > 100 µM; in test [3], 2.89 µM.

On to `Cc1cn2c(/C=N/NC3=NCCN3)c(-c3ccc(Cl)c([N+](=O)[O-])c3)nc2s1`, for which the results for the IC50 in test [1], in test [2] and in test [3] were > 100 µM, > 100 µM and 20.5 µM, respectively.

`COc1cc([N+](=O)[O-])c(OC)cc1-c1nc2sc(Cl)cn2c1/C=N/NC(=N)N/N=C/c1c(-c2cc(OC)c([N+](=O)[O-])cc2OC)nc2sc(Cl)cn12`: the IC50 is > 100 µM in test [1], > 100 µM in test [2] and 11.4 µM in test [3].

Take `Cc1cn2c(/C=N/NC(=N)N)c(-c3ccc(Cl)c([N+](=O)[O-])c3)nc2s1`: the half-maximal inhibitory concentration (IC50) in test [1] was 64.8 µM; in test [2], > 100 µM; in test [3], 3.76 µM.

For `CCCc1cn2c(/C=N/NC(=N)N)c(-c3ccc(Cl)c([N+](=O)[O-])c3)nc2s1`, the IC50 is 90.5 µM in test [1], > 100 µM in test [2] and 6.43 µM in test [3].

Take `CCCc1cn2c(/C=N/NC(=N)N)c(-c3ccc([N+](=O)[O-])cc3)nc2s1`: the concentration for half-maximal inhibition (IC50) is > 100 µM in test [1], > 100 µM in test [2] and 20.9 µM in test [3].

In the case of `N=C(N)N/N=C\c1c(-c2cccc(C(F)(F)F)c2)nc2sccn12`, in test [4], the inhibition entry is “inactive”. The IC50 in test [1] and in test [3] was > 100 µM throughout.

Turning to `N=C(N)N/N=C\c1c(-c2ccc(F)c(F)c2)nc2sccn12`, the inhibition result in test [4] was “inactive”. Moreover, the concentration for half-maximal inhibition (IC50) in test [1] and in test [3] was > 100 µM each time.

Turning to `N=C(N)N/N=C/c1c(-c2ccc(Cl)cc2)nc2sc(Cl)cn12`, the IC50 in test [1] is 49.3 µM; in test [2], > 7900 µM; in test [3] it was 14 µM.

Consider `N=C(N)N/N=C/c1c(-c2cc([N+](=O)[O-])c(Cl)cc2Cl)nc2sccn12`, for which the IC50 in test [1] is > 100 µM; in test [2], > 100 µM; in test [3] it was 5.93 µM.

On to `N=C(N)N/N=C/c1c(-c2cccc([N+](=O)[O-])c2)nc2sccn12`, for which the figures for the half-inhibitory concentration (IC50) in test [1], in test [2] and in test [3] were > 100 µM, > 100 µM and 18.5 µM, respectively.

With `Cc1csc2nc(-c3cccnc3)c(/C=N/NC(=N)N)n12`, the 50% inhibitory concentration (IC50) in test [1] is 34.3 µM; in test [2], > 100 µM; in test [3], 100 µM.

Turning to `Cc1cn2c(/C=N/NC(=N)NN)c(-c3ccc(Cl)c([N+](=O)[O-])c3)nc2s1`, the IC50 in test [1] was > 100 µM; in test [2] it was > 100 µM; in test [3], 18 µM.

Take `Clc1cc(-c2nc3ccccn3c2/C=N/NC2=NCCN2)c(Cl)s1`: in test [4], the inhibition entry is “inactive”. Moreover, the IC50 in test [1] was > 20 µM; in test [3], > 100 µM.

As for `Cc1csc2nc(-c3ccc(Cl)c([N+](=O)[O-])c3)c(/C=N/NC(=N)N)n12`, the IC50 in test [1] is 84.4 µM; in test [2], > 100 µM; in test [3], 44.8 µM.

In the case of `CCCc1cn2c(/C=N/NC(=N)N)c(-c3cc([N+](=O)[O-])c(Cl)cc3Cl)nc2s1`, the IC50 was > 100 µM in test [1], > 100 µM in test [2] and 5.97 µM in test [3].

For `CCCc1cn2c(/C=N/NC(=N)N)c(-c3cccc([N+](=O)[O-])c3)nc2s1`, the IC50 in test [1] is 69.5 µM; in test [2], > 100 µM; in test [3] it was 13.2 µM.

In the case of `N=C(N)N/N=C/c1c(-c2ccc(N)cc2)nc2sccn12`, the IC50 in test [1] is 67.5 µM; in test [2], > 100 µM; in test [3], 3 µM.

For `COc1cc([N+](=O)[O-])c(OC)cc1-c1nc2sc(C)nn2c1/C=N\NC(=N)N`, the inhibition entry in test [4] is “inactive”. Also, the IC50 in test [1] was > 20 µM; in test [3], > 100 µM.

For `N=C(N)N/N=C/c1c(-c2ccccc2)nc2sc(Cl)cn12`, the inhibition result in test [4] was “inactive”. For the same compound, the IC50 in test [1] and in test [3] was > 100 µM in each case.

On to `N=C(N)N/N=C\c1c(-c2c(F)cccc2F)nc2sccn12`, for which the inhibition result in test [4] was “inactive”. Moreover, the IC50 in test [1] and in test [3] was > 100 µM each time.

In the case of `N=C(N)N/N=C\c1c(-c2ccccc2F)nc2sccn12`, the inhibition entry in test [4] is “inactive”. Also, the half-inhibitory concentration (IC50) in test [1] and in test [3] was > 100 µM throughout.

Turning to `N=C(N)N/N=C/c1c(-c2ccc(Cl)c([N+](=O)[O-])c2)nc2sc3ccccc3n12`, the half-maximal inhibitory concentration (IC50) was > 100 µM in test [1], > 100 µM in test [2] and 7.32 µM in test [3].

Take `COc1cc([N+](=O)[O-])c(OC)cc1-c1nc2sccn2c1/C=N/NC(=N)N`: the IC50 in test [1] was 96 µM; in test [2], > 100 µM; in test [3] it was 3.58 µM.

For the compound `Cc1sc2nc(-c3ccc(Cl)c([N+](=O)[O-])c3)c(/C=N/NC(=N)N)n2c1C`, the IC50 in test [1] was 48.5 µM; in test [2] it was > 100 µM; in test [3] it was 13.9 µM.

Turning to `Cc1cn2c(/C=N/NC(=N)N)c(-c3cc([N+](=O)[O-])c(Cl)cc3Cl)nc2s1`, the IC50 is > 100 µM in test [1], > 100 µM in test [2] and 4.53 µM in test [3].

For the compound `Cc1cn2c(/C=N/NC(=N)N)c(-c3cc(Cl)sc3Cl)nc2s1`, the figures for the IC50 in test [1], in test [2] and in test [3] were > 100 µM, > 100 µM and 26.5 µM, respectively.

Regarding `N=C(N)N/N=C/c1c(-c2cc(Cl)sc2Cl)nc2ccccn12`, in test [4], the inhibition entry was “inactive”. The values for the IC50 in test [1] and in test [3] were > 20 µM and > 100 µM, respectively.

Consider `N=C(N)N/N=C\c1c(-c2cc(F)c(F)cc2F)nc2sccn12`, for which, in test [4], the inhibition entry is “inactive”. Further, the half-inhibitory concentration (IC50) in test [1] and in test [3] was > 100 µM in each case.

Regarding `Cc1nn2c(/C=N/NC(=N)N)c(-c3ccc(Cl)c([N+](=O)[O-])c3)nc2s1`, the figures for the IC50 in test [1] and in test [3] were 78 µM and 94 µM, respectively.

For `Cc1nn2c(/C=N/NC(=N)N)c(-c3cc(Cl)sc3Cl)nc2s1`, the inhibition entry in test [4] was “inactive”. In addition, the IC50 in test [1] is > 20 µM; in test [3], > 100 µM.

On to `Cc1nn2c(/C=N/NC3=NCCN3)c(-c3ccc(Cl)c([N+](=O)[O-])c3)nc2s1`, for which, in test [4], the inhibition result is “inactive”. Besides, the half-maximal inhibitory concentration (IC50) was > 20 µM in test [1] and > 100 µM in test [3].

As to `Cc1cn2c(/C=N/NC(=N)N)c(-c3cccc([N+](=O)[O-])c3)nc2s1`, the IC50 in test [1] is 59 µM; in test [2], > 100 µM; in test [3] it was 17.5 µM.

As for `Clc1cc(-c2nc3sc(Cl)cn3c2/C=N/NC2=NCCN2)c(Cl)s1`, the inhibition result in test [4] was “inactive”. Further, the IC50 is > 20 µM in test [1] and > 100 µM in test [3].

As to `Clc1cc(-c2nc3sc4ccccc4n3c2/C=N/NC2=NCCN2)c(Cl)s1`, the inhibition entry in test [4] was “inactive”. For the same compound, the IC50 in test [1] and in test [3] was > 100 µM in each case.

On to `N=C(N)N/N=C/c1c(-c2ccc([N+](=O)[O-])cc2)nc2sccn12`, for which the IC50 is > 100 µM in test [1], > 100 µM in test [2] and 5.66 µM in test [3].

With `N=C(N)N/N=C/c1c(-c2cccc([N+](=O)[O-])c2)nc2sc(Cl)cn12`, the results for the IC50 in test [1], in test [2] and in test [3] were > 100 µM, > 100 µM and 6.03 µM, respectively.

For `O=Cc1c(-c2ccc([N+](=O)[O-])cc2)nc2sc(Br)cn12`, in test [4], the inhibition result was “inactive”.

In the case of `N=C(N)N/N=C/c1c(-c2cc(Cl)sc2Cl)nc2sccn12`, the results for the IC50 in test [1], in test [2] and in test [3] were 65 µM, > 100 µM and 79 µM, respectively.

For `Cc1sc2nc(-c3cccnc3)c(/C=N/NC(=N)N)n2c1C`, the IC50 is 6.58 µM in test [1], > 100 µM in test [2] and 100 µM in test [3].

As to `N=C(N)N/N=C\c1c(-c2cccc([N+](=O)[O-])c2F)nc2sccn12`, the inhibition result in test [4] is “inactive”. Also, the IC50 in test [1] and in test [3] was > 100 µM in each case.

Take `Fc1cccc(F)c1-c1cn2ccsc2n1`: the inhibition result in test [4] was “inactive”.

Consider `Fc1ccc(-c2cn3ccsc3n2)cc1F`, for which the inhibition result in test [4] was “inactive”.

Regarding `CCc1cn2c(/C=N/NC(=N)N)c(-c3cc([N+](=O)[O-])c(Cl)cc3Cl)nc2s1`, the 50% inhibitory concentration (IC50) is 59 µM in test [1], > 20 µM in test [2] and 83 µM in test [3].

On to `Cc1cn2c(C=O)c(-c3ccc(F)cc3)nc2s1`, for which, in test [4], the inhibition result is “inactive”.

Regarding `Cc1sc2nc(-c3cc([N+](=O)[O-])c(Cl)cc3Cl)c(/C=N/NC(=N)N)n2c1C`, the IC50 in test [1] is > 100 µM; in test [3] it was 98.5 µM.

As for `O=Cc1c(-c2cc(Cl)sc2Cl)nc2sc(Cl)cn12`, in test [4], the inhibition entry is “inactive”.

The IC50 is the concentration that inhibits the measured activity by half. A lower IC50 goes with greater potency.
